Assay results published in patent publication US7647217B2, “Structure of the farnesoid X receptor ligand binding domain and methods of use therefor” (The Salk Institute for Biological Studies, priority 2002, dated 2010).
“And” between values parts separate entries of the source, which are not always exact repeats. Identical values can stand only once.

Legend:
FXR = biological target: T1, FXR (Mus musculus, UniProt Q60641); experiment: Cell-based screen: full-length FXR expression vector co-transfected with hormone response element luciferase reporter; conditions: FXR agonist activity
T1 construct: expression vector containing the full-length FXR receptor; expressed in transfected cells
T1 sequence (Q60641 1-488): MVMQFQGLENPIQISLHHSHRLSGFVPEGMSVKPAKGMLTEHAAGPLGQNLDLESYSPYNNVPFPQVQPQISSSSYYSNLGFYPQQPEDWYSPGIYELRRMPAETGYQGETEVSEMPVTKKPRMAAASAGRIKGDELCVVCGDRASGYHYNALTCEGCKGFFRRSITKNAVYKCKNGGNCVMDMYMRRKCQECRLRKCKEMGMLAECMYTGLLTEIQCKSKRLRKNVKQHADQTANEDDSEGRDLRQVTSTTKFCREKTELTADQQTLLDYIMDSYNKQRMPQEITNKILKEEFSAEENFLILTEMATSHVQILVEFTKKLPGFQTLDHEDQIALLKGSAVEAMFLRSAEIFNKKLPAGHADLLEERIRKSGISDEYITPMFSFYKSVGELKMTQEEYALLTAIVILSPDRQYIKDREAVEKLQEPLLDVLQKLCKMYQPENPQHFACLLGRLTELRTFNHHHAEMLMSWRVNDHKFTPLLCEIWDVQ
T1 sequence (P19793 1-462 partner): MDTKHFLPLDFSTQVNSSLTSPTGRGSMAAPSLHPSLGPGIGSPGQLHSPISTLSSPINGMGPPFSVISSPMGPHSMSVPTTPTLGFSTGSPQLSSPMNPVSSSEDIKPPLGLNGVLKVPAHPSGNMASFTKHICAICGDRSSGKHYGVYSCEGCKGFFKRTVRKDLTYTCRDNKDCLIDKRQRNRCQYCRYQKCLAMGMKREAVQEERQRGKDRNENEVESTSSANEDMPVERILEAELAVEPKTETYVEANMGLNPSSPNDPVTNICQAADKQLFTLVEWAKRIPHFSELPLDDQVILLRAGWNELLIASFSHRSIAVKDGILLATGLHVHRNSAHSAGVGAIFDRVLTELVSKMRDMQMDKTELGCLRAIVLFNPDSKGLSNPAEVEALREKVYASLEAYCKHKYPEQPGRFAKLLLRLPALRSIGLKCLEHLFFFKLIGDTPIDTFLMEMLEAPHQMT
Procedure: (§1) For transfection of these constructs, monkey CV-1 HEPG2 and HEK293T cells were grown in DMEM supplemented with 10% FBS, 50 U/ml penicillin G, and 50 μg/ml streptomycin sulfate at 37° C. in 7% CO2. CV-1 cells (60%-70% confluence, 48-well plate) were cotransfected with 16.6 ng of the appropriate expression vector, 100 ng of reporter plasmid, and 100 ng of pCMX-LacZ in 200 μl of DMEM containing 10% FBS by the N-[1-(2,3-dioleoyloxy)propyl]-N,N,N-trimethylammonium methylsulfate (DOTAP)-mediated procedure. After 24 hr, the medium was replaced, and cells were harvested and assayed for luciferase activity 36-48 hr after transfection. The luciferase activity was normalized to the level of β-galactosidase activity. Each transfection was performed in triplicate and repeated at least three times.
To discover novel small molecule ligands for FXR, a constructed combinatorial library of approximately 10 000 benzopyran compounds was screened using a cell-based assay in a 384 well format (Nicolaou et al. (2000). Natural product-like combinatorial libraries based on privileged structures. 1. General principles and solid-phase synthesis of benzopyrans. J. Am. Chem. Soc. 122, 9939-9953; Natural product-like combinatorial libraries based on privileged structures. 2. Construction of a 10000-membered benzopyran library by directed split-and-pool chemistry using nanokans and optical encoding. J. Am. Chem. Soc. 122, 9954-9967; and Natural product-like combinatorial libraries based on privileged structures. 3. The “libraries from libraries” principle for diversity enhancement of benzopyran libraries. J. Am. Chem. Soc. 122, 9968-9976). This cell-based screen was based on the co-transfection of an expression vector containing the full-length FXR receptor with a reporter vector. The reporter vector contains a hormone response element under a minimal eukaryotic promoter driving a luciferase reporter gene. […] Lead compounds were re-tested and checked for cross-reactivity for the retinoid X receptor (RXR), the heterodimeric partner of FXR. None of the identified compounds had the ability to bind or activate RXR.
Systematic optimization of regions I and II of the prototypical structure through multiple rounds of screening using smaller “focused” chemical libraries defined the requisite features of these domains for high affinity binding to FXR. […] This intelligence gathering was then used to design and synthesize on a solid support a focused library of 94 new compounds for further optimization.

mouse FXR = biological target: T2, mouse FXR (Mus musculus, UniProt Q60641); experiment: CV-1 reporter gene assay, mFXR/hRXR with TK minimal, TK-ECRE*6 or TK-ER8*2 luciferase reporter; format: cell-based; conditions: for activation of ECRE FXRE reporter: CV-1, TK-ECRE*6; for activation of ER-8 FXRE reporter: CV-1, TK-ER8*2; for concentration at which maximal activity is achieved / activity on FXRE reporters: ECRE and ER-8 reporters
T2 construct: expressed in transfected cells; host or cells: CV-1 (monkey)
T2 sequence (Q60641 1-488): T1 sequence (Q60641 1-488)
T2 sequence (P19793 1-462 partner): T1 sequence (P19793 1-462 partner)
Procedure: FIGS. 2A-2F collectively show the results of ligand activation of CV-1 cells co-transfected with FXR constructs pCMX-mFXR and pCMX-hRXR and a luciferase reporter gene containing various promoters as follows: FIG. 2A with a minimal TK promoter, FIG. 2B with a TK-ECRE*6 promoter, FIG. 2C with a TK-ER8*2 promoter, FIG. 2D with HIBABP promoter, FIG. 2E with a hPLTP promoter, or FIG. 2 with a FhMRP-2 promoter.
as §1
The ability of these compounds to activate the receptor in a number of different cell-based reporter gene assays was then determined. […] CV-1 cells were transiently transfected with an expression plasmid for mouse FXR and human RXR with a thymidine kinase (minimal promoter reporter vector containing either no copies or six copies of the ecdysone response element (ECRE), a well-characterized FXR response element (FXRE). In addition, two copies of the recently identified FXRE everted repeat separated by 8 nucleotides (ER-8) was also studied (see, for example, Laffitte et al. (2000). Identification of the DNA binding specificity and potential target genes for the farnesoid X-activated receptor. J Biol. Chem. 275(14), 10638-47; Kast et al. (2002). Regulation of multidrug resistance-associated protein 2 (ABCC2) by the nuclear receptors pregnane X receptor, farnesoid X-activated receptor, and constitutive androstane receptor. J Biol Chem. 277(4), 2908-15).
Similar results were found in a variety of different cell types including liver cells (HEPG2) and kidney cells (HEK 293).

Row | SMILES | EC50 (FXR) | activation of ECRE FXRE reporter (mouse FXR) | activation of ER-8 FXRE reporter (mouse FXR) | concentration at which maximal activity is achieved (mouse FXR) | activity on FXRE reporters (mouse FXR) | activity on minimal TK promoter (mouse FXR; reporter without FXRE)
1 | COC(=O)/C=C/c1cccc(N(Cc2ccc(-c3ccc(N(C)C)cc3)cc2)C(=O)C2CCCCC2)c1 [fexaramine] | 25 nM | 100 fold | 4 fold | 1 µM | – | –
2 | COC(=O)/C=C/c1cccc(N(Cc2ccc(-c3ccccc3OC)cc2)C(=O)C(C)C)c1 [SRI-1] | 377 nM | – | – | – | little or no activity | –
3 | COC(=O)/C=C/c1cccc(N(Cc2ccc(/C=C/c3ccccc3)cc2)C(=O)C2CCCCC2)c1 [fexarene] | 36 nM | 100 fold | 4 fold | 1 µM | – | –
4 | COC(=O)/C=C/c1cccc(N(Cc2ccc(-c3ccc4c(c3)OCO4)cc2)C(=O)C2CCCCC2)c1 [fexarine] | 38 nM | 100 fold | 4 fold | 1 µM | – | –
5 | COC(=O)/C=C/c1cccc(N(Cc2ccc(-c3ccc(C(C)(C)C)cc3)cc2)C(=O)C(C)C)c1 [SRI-2] | 343 nM | – | – | – | little or no activity | –
6 | CC(C)c1onc(-c2c(Cl)cccc2Cl)c1COc1ccc(/C=C/c2cccc(C(=O)O)c2)c(Cl)c1 [GW4064, reference compound] | ~90 nM and 80 nM | 100 fold | 4 fold | 1 µM | – | less than 2 fold
